Test results as given in patent publication US12398093B2, “Compounds and methods for treating inflammatory disorders” (Board of Supervisors of Louisiana State University and …, priority 2019, dated 2025).
Several values for one entry are separate records, joined by “and”; a condition that tells them apart may be missing. Equal values may be shown once. Read-outs that look alike come from different tables or passages of the source. Marks after values point to notes of the source that are not given here.

Experiments:
human 5-HT2A receptor = biological target: T1, human 5-HT2A receptor (Homo sapiens, UniProt P28223); experiment: Gq-mediated calcium transients (calcium mobilization), Fluo-4, HEK cells; format: cell-based
T1 construct: expressed in transfected cells
T1 sequence (P28223 whole entry): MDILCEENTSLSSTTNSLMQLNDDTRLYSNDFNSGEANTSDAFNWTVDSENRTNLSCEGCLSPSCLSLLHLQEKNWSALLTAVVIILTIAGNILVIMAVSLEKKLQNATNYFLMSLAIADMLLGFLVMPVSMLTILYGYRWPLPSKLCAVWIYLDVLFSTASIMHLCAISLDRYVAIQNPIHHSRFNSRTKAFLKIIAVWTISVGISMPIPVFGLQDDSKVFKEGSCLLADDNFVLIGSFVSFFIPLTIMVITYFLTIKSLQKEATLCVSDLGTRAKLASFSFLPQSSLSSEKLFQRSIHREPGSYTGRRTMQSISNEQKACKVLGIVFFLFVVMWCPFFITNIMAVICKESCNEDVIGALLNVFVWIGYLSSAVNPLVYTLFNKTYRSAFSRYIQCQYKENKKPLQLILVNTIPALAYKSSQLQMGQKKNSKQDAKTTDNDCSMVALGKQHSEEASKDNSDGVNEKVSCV

C57BL/6J mice = experiment: Head twitch response (HTR), magnetometer detection; format: in vivo; conditions: for HTR counts, mean: 30-minute session; for ED50: Mus musculus
Protocol: The head twitch response (HTR) can be used as a behavioral proxy in rodents for human hallucinogenic effects, because it can reliably distinguish hallucinogenic and non-hallucinogenic 5-HT2A receptor agonists. […] HTR studies were conducted with (R)-DOI and 2C-iBu in C57BL/6J mice.
Male C57BL/6J mice (6-8 weeks old) obtained from Jackson Laboratories (Bar Harbor, ME, USA) were housed at up to four per cage in a climate-controlled room on a reverse-light cycle (lights on at 1900 h, off at 0700 h) and were provided with ad libitum access to food and water, except during behavioral testing. Testing was conducted between 1000 and 1800 h.
Drug doses are based on the equivalent freebase weight. Test substances were dissolved in sterile isotonic saline and injected subcutaneously (SC) at a volume of 5 mL/kg.
The HTR was assessed using a head-mounted magnet and a magnetometer detection coil, according to known methods. Briefly, mice were anesthetized, a small incision was made in the scalp, and a small neodymium magnet was attached to the dorsal surface of the cranium using dental cement. Following a two-week recovery period, HTR experiments were carried out in a well-lit room with at least seven days between sessions to avoid carryover effects. Test compounds were injected immediately prior to testing. Mice were injected with drug or vehicle and then HTR activity was recorded in a glass cylinder surrounded by a magnetometer coil. Coil voltage was low-pass filtered (2-10 kHz cutoff frequency), amplified, and digitized (20 kHz sampling rate) using a Powerlab/8SP with LabChart v 7.3.2 (ADInstruments, Colorado Springs, CO, USA), then filtered off-line (40-200 Hz band-pass).
Experiment 1. Five groups of mice (n=6/group, 30 total) were treated with vehicle or R-DOI (0.1, 0.3, 1, or 3 mg/kg) and HTR activity was assessed for 30 minutes. Experiment 2. Five groups of mice (n=6-7/group, 34 total) were treated with vehicle or 2C-iBu (0.3, 1, 3, or 10 mg/kg) and HTR activity was assessed for 30 minutes. Experiment 3. Two groups of mice (n=7/group, 14 total) were treated with R-DOI (1 mg/kg) or 2C-iBu (3 mg/kg) and HTR activity was assessed for 210 minutes.
For Experiment 1 and Experiment 2, the entire thirty-minute recordings were examined for head twitches, head twitch counts were analyzed using one-way analyses of variance (ANOVA). In addition, HTR counts were analyzed in two-minute time blocks using one-way ANOVAs, with time as a repeated measure. Post hoc pairwise comparisons between selected groups were performed using Tukey's studentized range method.
A Gaussian distribution was used to fit biphasic HTR dose-response data:
[formula] [formula] In these equations, E is the drug effect, Baseline is the response in the control group, Range is the distance from Baseline to the top of the curve, [A] is the dose of the drug, and midA is the logarithm of the dose corresponding to the top of the curve. To determine whether potency differences exist between individual compounds, ED50 values were compared using an extra-sum-of-squares F-test.
For Experiment 3, HTR counts were examined in 5-min time blocks. To determine the half-life of drug responses, the descending phase of the data was fitted with a one-phase exponential decay function. The responses produced by R-(−)-DOI (1 mg/kg) or ELEU02 were analyzed using one-way ANOVA, with time as a repeated measure. Post hoc pairwise comparisons between groups were performed using Sidak's multiple comparisons test.

5-HT2C (h) = biological target: T2, 5-HT2C (h) (Homo sapiens, UniProt P28335); experiment: Radioligand binding, agonist radioligand [125I](±)DOI
T2 sequence (P28335 33-458): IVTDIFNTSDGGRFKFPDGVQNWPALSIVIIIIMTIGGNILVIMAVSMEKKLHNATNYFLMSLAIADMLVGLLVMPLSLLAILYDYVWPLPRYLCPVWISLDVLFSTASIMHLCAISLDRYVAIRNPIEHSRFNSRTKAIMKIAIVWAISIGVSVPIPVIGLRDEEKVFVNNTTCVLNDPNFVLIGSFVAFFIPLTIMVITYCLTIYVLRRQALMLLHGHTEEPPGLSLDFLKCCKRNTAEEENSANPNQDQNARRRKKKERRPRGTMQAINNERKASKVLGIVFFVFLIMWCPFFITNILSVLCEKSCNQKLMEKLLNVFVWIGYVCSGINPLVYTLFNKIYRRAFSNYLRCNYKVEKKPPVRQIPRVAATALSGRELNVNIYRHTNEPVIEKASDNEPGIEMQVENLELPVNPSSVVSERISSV

[1] = In vitro absorption, Caco-2 permeability; format: in vitro ADME; conditions: human, Caco-2, pH 6.5, Caco-2, pH 6.5/7.4, 1.0×10^−5 M
5-HT2AR-Tango construct = biological target: T3, 5-HT2AR-Tango construct (Homo sapiens, UniProt P28223); experiment: β-arrestin-2 recruitment, PRESTO-Tango assay in HTLA cells; format: cell-based; conditions: for Emax: HTLA
T3 construct: expressed in transfected cells; host or cells: HTLA cells (transient transfection)
T3 sequence (P28223 whole entry, added parts left off): as the sequence (P28223 whole entry) above
T3 sequence (P32121 whole entry partner): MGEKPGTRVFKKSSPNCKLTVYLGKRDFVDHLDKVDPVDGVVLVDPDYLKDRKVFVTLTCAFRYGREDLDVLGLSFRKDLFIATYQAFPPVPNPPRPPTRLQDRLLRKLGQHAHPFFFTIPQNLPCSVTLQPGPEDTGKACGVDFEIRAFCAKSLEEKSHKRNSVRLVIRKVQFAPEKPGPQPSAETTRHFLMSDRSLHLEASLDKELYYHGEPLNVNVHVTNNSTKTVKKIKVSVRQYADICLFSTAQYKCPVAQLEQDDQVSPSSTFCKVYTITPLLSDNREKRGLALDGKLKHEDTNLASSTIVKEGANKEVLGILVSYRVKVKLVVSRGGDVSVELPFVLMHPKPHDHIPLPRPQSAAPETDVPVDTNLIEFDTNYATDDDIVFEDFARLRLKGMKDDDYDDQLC

5-HT2B (h) = 5-HT2B (h) (Homo sapiens, UniProt P41595); experiment: Radioligand binding, agonist radioligand [125I](±)DOI
5-HT2B (h), sequence (P41595 whole entry): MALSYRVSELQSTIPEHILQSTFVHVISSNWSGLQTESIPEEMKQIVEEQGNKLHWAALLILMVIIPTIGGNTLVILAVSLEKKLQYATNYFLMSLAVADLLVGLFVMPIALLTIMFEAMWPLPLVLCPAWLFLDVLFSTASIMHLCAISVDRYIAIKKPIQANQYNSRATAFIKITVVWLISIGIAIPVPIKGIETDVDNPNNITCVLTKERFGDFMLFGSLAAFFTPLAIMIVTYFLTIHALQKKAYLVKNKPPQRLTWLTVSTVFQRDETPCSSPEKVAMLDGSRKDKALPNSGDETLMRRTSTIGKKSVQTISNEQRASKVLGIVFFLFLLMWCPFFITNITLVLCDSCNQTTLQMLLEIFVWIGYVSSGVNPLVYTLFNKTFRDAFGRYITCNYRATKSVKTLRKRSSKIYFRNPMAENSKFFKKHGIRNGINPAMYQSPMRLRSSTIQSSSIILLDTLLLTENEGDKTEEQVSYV

[2] = In vitro metabolism, intrinsic clearance in human liver microsomes; format: in vitro ADME; conditions: for Clint: human liver microsomes intrinsic clearance; for Clint / half-life / % Compound Remaining, 1st / % Compound Remaining, 2nd / % Compound Remaining, Mean: 1.0×10^−7 M; for microsomal CLint / half-life: human, human liver microsomes
[3] = HEK293, read-out: EMAX (%) calcium mobilization
[4] = sc, read-out: ED50 for induction of HTR, based on molar mass
[5] = SC, freebase weight, read-out: ED50 for induction of HTR
[6] = read-out: A-B Permeability, 1st
[7] = read-out: A-B Permeability, 2nd
[8] = read-out: A-B Permeability, Mean
[9] = read-out: B-A Permeability, 1st
[10] = read-out: B-A Permeability, 2nd
[11] = read-out: B-A Permeability, Mean
[12] = read-out: EMAX (%) beta arrestin recruitment
[13] = read-out: Half-life (minutes), 1st
[14] = read-out: Half-life (minutes), 2nd
[15] = read-out: Half-life (minutes), Mean

## COc1cc(CC(C)C)c(OC)cc1CCN [2C-iBu, 2,5-dimethoxy-4-isobutylphenethylamine]
Human 5-HT2A receptor
  EC50: 2.19 nM
Human 5-HT2A receptor; [3]
  Emax: 88%
Human 5-HT2A receptor; HEK293, read-out: EMAX Ca^2+
  Emax: 103%
C57BL/6J mice; 0.3 mg/kg SC
  HTR counts, mean: 30.8 counts/30 min
C57BL/6J mice; 1 mg/kg SC
  HTR counts, mean: 74.4 ** counts/30 min
C57BL/6J mice; 3 mg/kg SC
  HTR counts, mean: 111.1±4.7 counts/30 min and 111.1 ** counts/30 min
C57BL/6J mice; 10 mg/kg SC
  HTR counts, mean: 43.4* counts/30 min
C57BL/6J mice; Experiment 3, 3 mg/kg SC
  Peak HTR counts: 20.1±3.5 counts/5 min
C57BL/6J mice; [4]
  ED50: 2.17 µmol/kg
C57BL/6J mice; [5]
  ED50: 0.7 mg/kg
C57BL/6J mice; ratio of HTR ED50 values (μmol/kg)
  fold lower behavioral potency than R-DOI: ~3 fold
5-HT2C (h)
  Ki: 0.251 nM
[1]; read-out: % Recovery A-B, 1st
  recovery: 45%
[1]; read-out: % Recovery A-B, 2nd
  recovery: 48%
[1]; read-out: % Recovery A-B, Mean
  recovery: 46%
[1]; read-out: % Recovery B-A, 1st
  recovery: 70%
[1]; read-out: % Recovery B-A, 2nd
  recovery: 72%
[1]; read-out: % Recovery B-A, Mean
  recovery: 71%
[1]; [6]
  Papp A→B: 10.9 ×10⁻⁶ cm/s
[1]; [7]
  Papp A→B: 10.6 ×10⁻⁶ cm/s
[1]; [8]
  Papp A→B: 10.7 ×10⁻⁶ cm/s
[1]; [9]
  Papp B→A: 7.87 ×10⁻⁶ cm/s
[1]; [10]
  Papp B→A: 7.92 ×10⁻⁶ cm/s
[1]; [11]
  Papp B→A: 7.9 ×10⁻⁶ cm/s
5-HT2AR-Tango construct
  EC50: 13.5 nM
5-HT2AR-Tango construct; Table 3, read-out: EMAX β-arrestin-2
  Emax: 77%
5-HT2AR-Tango construct; [12]
  Emax: 57.4%
5-HT2B (h)
  Ki: 15.8 nM
[2]
  Clint: <115.5
  microsomal CLint: < 116 µL/min/mg
[2]; [13]
  half-life: > 60 min
[2]; [14]
  half-life: 1020 min
[2]; [15]
  half-life: > 60 min
[2]; incubation 0 minutes
  % Compound Remaining, 1st: 100%
  % Compound Remaining, 2nd: 100%
  % Compound Remaining, Mean: 100%
[2]; incubation 15 minutes
  % Compound Remaining, 1st: 91.0%
  % Compound Remaining, 2nd: {126.7} %
  % Compound Remaining, Mean: 91%
[2]; incubation 30 minutes
  % Compound Remaining, 1st: 113.6%
  % Compound Remaining, 2nd: 114.2%
  % Compound Remaining, Mean: 114%
[2]; incubation 45 minutes
  % Compound Remaining, 1st: 105.3%
  % Compound Remaining, 2nd: 106.5%
  % Compound Remaining, Mean: 106%
[2]; incubation 60 minutes
  % Compound Remaining, 1st: 94.1%
  % Compound Remaining, 2nd: 94.2%
  % Compound Remaining, Mean: 94%

## COc1cc(C[C@@H](C)N)c(OC)cc1I [R-DOI]
Human 5-HT2A receptor; [3]
  Emax: 112%
C57BL/6J mice; 0.1 mg/kg SC
  HTR counts, mean: 46.5 counts/30 min
C57BL/6J mice; 0.3 mg/kg SC
  HTR counts, mean: 78.8 ** counts/30 min
C57BL/6J mice; 1 mg/kg SC
  HTR counts, mean: 128.0±13.2 counts/30 min and 128.0 ** counts/30 min
C57BL/6J mice; 3 mg/kg SC
  HTR counts, mean: 116.0 ** counts/30 min
C57BL/6J mice; Experiment 3, 1 mg/kg SC
  Peak HTR counts: 23.3±3.5 counts/5 min
C57BL/6J mice; [4]
  ED50: 0.63 µmol/kg
C57BL/6J mice; [5]
  ED50: 0.2 mg/kg
C57BL/6J mice; administered IP, otherwise identical conditions, read-out: ED50 for induction of HTR
  ED50: 0.66 µmol/kg
5-HT2C (h)
  Ki: 0.631 nM
[1]; read-out: % Recovery A-B, 1st
  recovery: 72%
[1]; read-out: % Recovery A-B, 2nd
  recovery: 72%
[1]; read-out: % Recovery A-B, Mean
  recovery: 72%
[1]; read-out: % Recovery B-A, 1st
  recovery: 87%
[1]; read-out: % Recovery B-A, 2nd
  recovery: 88%
[1]; read-out: % Recovery B-A, Mean
  recovery: 87%
[1]; [6]
  Papp A→B: 23.7 ×10⁻⁶ cm/s
[1]; [7]
  Papp A→B: 23.2 ×10⁻⁶ cm/s
[1]; [8]
  Papp A→B: 23.4 ×10⁻⁶ cm/s
[1]; [9]
  Papp B→A: 19.1 ×10⁻⁶ cm/s
[1]; [10]
  Papp B→A: 19.3 ×10⁻⁶ cm/s
[1]; [11]
  Papp B→A: 19.2 ×10⁻⁶ cm/s
5-HT2AR-Tango construct; [12]
  Emax: 71.8%
5-HT2B (h)
  Ki: 2.51 nM
[2]
  Clint: <115.5
  microsomal CLint: < 116 µL/min/mg
[2]; [13]
  half-life: 139 min
[2]; [14]
  half-life: 188 min
[2]; [15]
  half-life: > 60 min
[2]; incubation 0 minutes
  % Compound Remaining, 1st: 100%
  % Compound Remaining, 2nd: 100%
  % Compound Remaining, Mean: 100%
[2]; incubation 15 minutes
  % Compound Remaining, 1st: 90.0%
  % Compound Remaining, 2nd: 101.6%
  % Compound Remaining, Mean: 96%
[2]; incubation 30 minutes
  % Compound Remaining, 1st: 79.6%
  % Compound Remaining, 2nd: 105.3%
  % Compound Remaining, Mean: 92%
[2]; incubation 45 minutes
  % Compound Remaining, 1st: 77.0%
  % Compound Remaining, 2nd: 82.1%
  % Compound Remaining, Mean: 80%
[2]; incubation 60 minutes
  % Compound Remaining, 1st: 74.3%
  % Compound Remaining, 2nd: {91.4} %
  % Compound Remaining, Mean: 74%
